Results: US10543155B2, “Compositions containing zinc salts and isothiocyanates for reduction of oral volatile sulfur compounds (VSCs)” (priority 2011, dated 2020)

What was measured:
[1] = in vitro reduction of headspace H2S by isothiocyanates (GC-SCD); conditions: for Peak Area (headspace H2S): 200 ppm H2S in 5 ml PBS pH 7.4, 5 min 37° C.
Method: A stock solution of H2S was prepared by a serial dilution in PBS buffer (pH 7.4), with a final concentration of 200 ppm. Allyl isothiocyanate, benzyl isothiocyanate, ethyl isothiocyanate and 3-methylthiopropyl isothiocyanate (all from Sigma-Aldrich) were dissolved in pure ethanol to form 1.0% of working solution of each. A total of 5 ml PBS buffer containing 200 ppm of H2S in a headspace vial (22 ml volume) was mixed with 0.125, 0.25, 0.5 and 1 mg of each isothiocyanate compound for 5 min at 37° C., respectively. The headspace sample was injected into the GC-SCD by an automatic sampler for VSC analysis. The reduction of headspace concentration of H2S was calculated by the formula below: […]
In view of the results pertaining to allyl isothiocyanate in Table 1, Applicants further evaluated allyl isothiocyanate in vitro for its VSC elimination effect of hydrogen sulfide (H2S). A […] headspace vial containing 5 ml of PBS solution and 200 ppm of H2S was treated with various concentrations of allyl isothiocyanate, respectively (0.25-1.0 mg). In a standard experimental protocol, a stock of hydrogen sulfide solutions were prepared by dissolving c.a. 0.10 g of sodium sulfide in a total of 10 ml phosphate buffer solution (PBS) (pH 7.4). It was further diluted in PBS to produce a working solution contained 200 ppm of H2S in buffer.

[2] = in vitro headspace GC-SCD test of zinc salts against methyl mercaptan; conditions: 200 ppm CH3SH in 5 ml PBS pH 7.4, 5 minutes at 37° C., FIG. 1
Method: For evaluation of the efficacy of various zinc salts against specific VSCs, the Applicants established an in vitro method using a headspace gas-chromatograph equipped with a sulfur detector. Thus, a total of 200 ppm of CH3SH in 5 ml of phosphate buffer solution (PBS) was prepared. The pH was maintained at 7.4. […] The headspace sample was injected into a gas chromatograph sulfur chemiluminescence detector (GC-SCD).

[3] = in vitro headspace GC-SCD test of zinc salts against H2S; conditions: 5 ml PBS containing 1 mg H2S, 37° C. 5 min; for reduces the oral malodor produced by hydrogen sulfide (H2S): FIG. 2
Method: In another experiment, 5 ml of PBS solution containing 1 mg of H2S was prepared via a serial dilution in a 22 ml headspace vial for FIG. 2 below. Different amounts of zinc salts were added and mixed at 37° C. for 5 min. The headspace concentration of H2S was analyzed by GC-SCD.

[4] = zinc lactate and AITC against VSC mixture, headspace GC-SCD: H2S; conditions: 1 mg in 5 ml VSC mixture (200 ppm H2S, 40 ppm CH3SH), 37° C. 5 min, FIG. 4
Method: (§1) The final concentrations of H2S and CH3SH in solution were a 200 and 40 ppm, respectively. The final amount of VSC was 1.2 mg in the test vial. Although the headspace concentrations of H2S and CH3SH were well above the level found in a typical foul mouth air (200-500 parts per billion), the total amount of VSC was close to the amount presented in oral cavity. Subsequently, 5 ml of the VSC mixture was kept in a 22 ml tight screw cap headspace vial at 37° C. for 5 min. The headspace sample was injected into a GC column with an SCD detector. […] The large peak area of CH3SH reflects its volatility in the headspace compared with H2S.
(§2) Separately, 1 mg of zinc lactate, or 1 mg of allyl isothiocyanate (AITC), or combination of 1 mg Zinc lactate and 1 mg of AITC were added to each of headspace vial containing 5 ml VSC mixture and equilibrated at 37° C. for 5 min. Each headspace sample was injected into a GC column by a Combi-Pal auto-sampler. The amount of sulfur was analyzed by an Agilent SCD-355 chemoluminescent sulfide detector.

[5] = zinc lactate and AITC against VSC mixture, headspace GC-SCD: CH3SH; conditions: 1 mg in 5 ml VSC mixture (200 ppm H2S, 40 ppm CH3SH), 37° C. 5 min, FIG. 4
Method: as §1, §2

[6] = 50 ppm isothiocyanate, 200 ppm H2S
[7] = 100 ppm isothiocyanate, 200 ppm H2S
[8] = 200 ppm isothiocyanate, 200 ppm H2S

Compound	% Reduction of headspace concentration (H2S) [1, 6]	Peak Area (headspace H2S) ([1]; 50 ppm isothiocyanate)	% Reduction of headspace concentration (H2S) [1, 7]	Peak Area (headspace H2S) ([1]; 100 ppm isothiocyanate)	% Reduction of headspace concentration (H2S) [1, 8]	Peak Area (headspace H2S) ([1]; 200 ppm isothiocyanate)	reduces the oral malodor produced by hydrogen sulfide (H2S) [3]	other results
CSCCCN=C=S [3-methylthiopropyl isothiocyanate]	51%	416687277	75%	211177117	94.5%	46897168	–	–
CCN=C=S [Ethylisothiocyanate, ethyl isothiocyanate]	−13%	963110533	14.9%	726258436	68%	271822727	–	% Reduction of headspace concentration (H2S) ([1]; 200 ppm isothiocyanate, 200 ppm H2S, listed as ethylisothiocyanate): 68%
zinc gluconate	–	–	–	–	–	–	reduces	reducing the headspace concentration of methyl mercaptan (CH3SH) [2]: ineffective
CC(O)C(=O)[O-].CC(O)C(=O)[O-].[Zn+2] (stereo not drawn) [zinc lactate]	–	–	–	–	–	–	reduces	reducing the headspace concentration of methyl mercaptan (CH3SH) [2]: ineffective; H2S eliminated [4]: 98%; CH3SH eliminated [5]: 0%; amount of zinc salt above which H2S is reduced ([3]; in vitro): greater than 0.25 mg
C=CCN=C=S [Allyl isothiocyanate, allyl isothiocyanate]	49%	431713256	98.4%	13651581	99.5%	4266119	–	H2S eliminated [4]: 98%; CH3SH eliminated [5]: 78%; Reduction of H2S ([1]; 0.25 mg allyl isothiocyanate, 5 ml PBS, 200 ppm H2S): 49.0%; Reduction of H2S ([1]; 0.5 mg allyl isothiocyanate, 5 ml PBS, 200 ppm H2S): 98.4%; Reduction of H2S ([1]; 1 mg allyl isothiocyanate, 5 ml PBS, 200 ppm H2S): 99.5%; Reduction of H2S ([1]; at 100 ppm or greater): greater than 90%
S=C=NCc1ccccc1 [Benzyl isothiocyanate, benzyl isothiocyanate]	53%	398519292	–	–	–	–	–	% Reduction of headspace concentration (H2S) ([1]; 25 ppm isothiocyanate, 200 ppm H2S): 42%; Peak Area (headspace H2S) ([1]; 25 ppm isothiocyanate): 491908604; % Reduction of headspace concentration (H2S) ([1]; 50 ppm isothiocyanate, 200 ppm H2S, listed as benzyl isothiocyanate): greater than 50%
zinc ascorbate	–	–	–	–	–	–	reduces	–
zinc hydrogen aspartate	–	–	–	–	–	–	reduces	–
